Read-outs that look alike come from different tables or passages of the source.
How the values were obtained:
Assay in all cases: KINOMEscan ScanTK
Type in all cases: binding
[1] = biological target: T1, ABL2 (Homo sapiens, UniProt P42684)
T1 construct: purchased Eurofins DiscoverX KINOMEscan (scanTK)

[2] = biological target: T2, ALK (Homo sapiens, UniProt Q9UM73)
T2 construct: purchased Eurofins DiscoverX KINOMEscan (scanTK)

[3] = biological target: T3, ALK(L1196M) (Homo sapiens, UniProt Q9UM73, L1196M)
T3 construct: purchased Eurofins DiscoverX KINOMEscan (scanTK)

[4] = biological target: T4, CSF1R (Homo sapiens, UniProt P07333)
T4 construct: purchased Eurofins DiscoverX KINOMEscan (scanTK)

[5] = tested on: EGFR(L747-T751del,Sins)
[6] = biological target: T5, FES (Homo sapiens, UniProt P07332)
T5 construct: purchased Eurofins DiscoverX KINOMEscan (scanTK)

[7] = biological target: T6, FGFR3 (Homo sapiens, UniProt P22607)
T6 construct: purchased Eurofins DiscoverX KINOMEscan (scanTK)

[8] = biological target: T7, FGFR3(G697C) (Homo sapiens, UniProt P22607, G697C)
T7 construct: purchased Eurofins DiscoverX KINOMEscan (scanTK)

[9] = tested on: FLT3(ITD,F691L)
[10] = biological target: T8, KIT(V559D,T670I) (Homo sapiens, UniProt P10721, T670I/V559D)
T8 construct: purchased Eurofins DiscoverX KINOMEscan (scanTK)

[11] = biological target: T9, LTK (Homo sapiens, UniProt P29376)
T9 construct: purchased Eurofins DiscoverX KINOMEscan (scanTK)

[12] = biological target: T10, MET(Y1235D) (Homo sapiens, UniProt P08581, Y1235D)
T10 construct: purchased Eurofins DiscoverX KINOMEscan (scanTK)

[13] = biological target: T11, PYK2 (Homo sapiens, UniProt Q14289)
T11 construct: purchased Eurofins DiscoverX KINOMEscan (scanTK)

T3 sequence (Q9UM73 19-1620 L1196M): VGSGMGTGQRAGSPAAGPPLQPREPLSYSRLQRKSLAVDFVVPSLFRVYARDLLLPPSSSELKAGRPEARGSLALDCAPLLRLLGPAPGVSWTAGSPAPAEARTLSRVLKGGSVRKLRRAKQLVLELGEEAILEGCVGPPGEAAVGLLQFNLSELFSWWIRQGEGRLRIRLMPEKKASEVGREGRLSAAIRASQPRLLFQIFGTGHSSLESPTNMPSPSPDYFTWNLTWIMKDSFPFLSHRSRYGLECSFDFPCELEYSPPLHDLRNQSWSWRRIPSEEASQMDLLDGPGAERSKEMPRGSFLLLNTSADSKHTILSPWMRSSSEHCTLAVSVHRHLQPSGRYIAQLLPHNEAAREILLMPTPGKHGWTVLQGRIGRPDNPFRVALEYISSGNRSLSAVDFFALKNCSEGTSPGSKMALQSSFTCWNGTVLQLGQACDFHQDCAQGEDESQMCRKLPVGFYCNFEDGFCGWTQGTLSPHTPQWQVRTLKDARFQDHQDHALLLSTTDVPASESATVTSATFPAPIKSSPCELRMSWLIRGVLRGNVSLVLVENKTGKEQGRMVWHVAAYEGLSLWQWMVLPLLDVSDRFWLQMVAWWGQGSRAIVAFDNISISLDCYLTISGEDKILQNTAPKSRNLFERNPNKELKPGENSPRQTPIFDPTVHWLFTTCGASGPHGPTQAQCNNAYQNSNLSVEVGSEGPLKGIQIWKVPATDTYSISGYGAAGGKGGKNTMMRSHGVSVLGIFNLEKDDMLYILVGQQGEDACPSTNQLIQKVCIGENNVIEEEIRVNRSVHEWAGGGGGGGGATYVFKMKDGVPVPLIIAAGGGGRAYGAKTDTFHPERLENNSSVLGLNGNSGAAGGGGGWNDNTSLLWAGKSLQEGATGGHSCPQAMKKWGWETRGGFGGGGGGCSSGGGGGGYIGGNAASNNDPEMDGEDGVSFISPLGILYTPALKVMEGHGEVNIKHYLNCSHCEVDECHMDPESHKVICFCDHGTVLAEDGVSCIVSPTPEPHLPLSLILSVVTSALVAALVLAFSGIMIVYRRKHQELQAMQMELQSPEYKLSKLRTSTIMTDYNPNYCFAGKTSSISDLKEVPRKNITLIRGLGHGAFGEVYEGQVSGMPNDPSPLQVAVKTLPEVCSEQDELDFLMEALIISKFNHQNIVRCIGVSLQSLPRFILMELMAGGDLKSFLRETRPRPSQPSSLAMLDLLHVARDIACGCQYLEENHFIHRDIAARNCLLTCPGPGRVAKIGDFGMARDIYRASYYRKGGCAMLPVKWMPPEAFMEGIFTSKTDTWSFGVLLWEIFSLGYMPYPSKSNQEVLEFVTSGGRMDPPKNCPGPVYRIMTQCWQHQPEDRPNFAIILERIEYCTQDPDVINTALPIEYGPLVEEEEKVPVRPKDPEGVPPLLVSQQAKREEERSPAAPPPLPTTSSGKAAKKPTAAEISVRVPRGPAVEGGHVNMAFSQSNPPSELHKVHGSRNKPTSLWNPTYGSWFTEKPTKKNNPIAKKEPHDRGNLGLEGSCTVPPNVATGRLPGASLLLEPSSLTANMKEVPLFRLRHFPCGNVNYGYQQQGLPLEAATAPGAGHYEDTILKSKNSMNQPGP
T9 sequence (P29376 17-864): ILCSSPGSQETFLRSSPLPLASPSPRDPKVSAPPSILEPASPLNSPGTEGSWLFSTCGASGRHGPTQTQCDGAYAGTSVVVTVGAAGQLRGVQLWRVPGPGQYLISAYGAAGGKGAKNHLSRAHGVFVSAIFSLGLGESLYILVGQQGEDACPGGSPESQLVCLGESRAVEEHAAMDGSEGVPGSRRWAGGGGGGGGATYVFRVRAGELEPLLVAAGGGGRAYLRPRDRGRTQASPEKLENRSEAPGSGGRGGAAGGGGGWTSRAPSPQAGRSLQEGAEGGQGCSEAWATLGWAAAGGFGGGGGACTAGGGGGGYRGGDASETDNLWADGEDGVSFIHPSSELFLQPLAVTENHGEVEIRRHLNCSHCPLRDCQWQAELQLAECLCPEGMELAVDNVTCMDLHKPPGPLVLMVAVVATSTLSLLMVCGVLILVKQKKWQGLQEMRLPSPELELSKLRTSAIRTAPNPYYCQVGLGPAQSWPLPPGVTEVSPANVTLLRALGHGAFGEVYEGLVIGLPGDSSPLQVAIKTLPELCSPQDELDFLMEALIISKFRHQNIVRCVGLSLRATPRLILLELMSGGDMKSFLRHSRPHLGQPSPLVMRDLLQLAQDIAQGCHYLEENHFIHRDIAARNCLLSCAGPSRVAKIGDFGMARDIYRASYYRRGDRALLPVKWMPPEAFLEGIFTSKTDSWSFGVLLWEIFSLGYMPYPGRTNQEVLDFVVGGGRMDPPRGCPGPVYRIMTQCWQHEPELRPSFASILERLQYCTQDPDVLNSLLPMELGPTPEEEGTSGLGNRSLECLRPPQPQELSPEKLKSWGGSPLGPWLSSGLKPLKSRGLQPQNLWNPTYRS
T4 sequence (P07333 20-972): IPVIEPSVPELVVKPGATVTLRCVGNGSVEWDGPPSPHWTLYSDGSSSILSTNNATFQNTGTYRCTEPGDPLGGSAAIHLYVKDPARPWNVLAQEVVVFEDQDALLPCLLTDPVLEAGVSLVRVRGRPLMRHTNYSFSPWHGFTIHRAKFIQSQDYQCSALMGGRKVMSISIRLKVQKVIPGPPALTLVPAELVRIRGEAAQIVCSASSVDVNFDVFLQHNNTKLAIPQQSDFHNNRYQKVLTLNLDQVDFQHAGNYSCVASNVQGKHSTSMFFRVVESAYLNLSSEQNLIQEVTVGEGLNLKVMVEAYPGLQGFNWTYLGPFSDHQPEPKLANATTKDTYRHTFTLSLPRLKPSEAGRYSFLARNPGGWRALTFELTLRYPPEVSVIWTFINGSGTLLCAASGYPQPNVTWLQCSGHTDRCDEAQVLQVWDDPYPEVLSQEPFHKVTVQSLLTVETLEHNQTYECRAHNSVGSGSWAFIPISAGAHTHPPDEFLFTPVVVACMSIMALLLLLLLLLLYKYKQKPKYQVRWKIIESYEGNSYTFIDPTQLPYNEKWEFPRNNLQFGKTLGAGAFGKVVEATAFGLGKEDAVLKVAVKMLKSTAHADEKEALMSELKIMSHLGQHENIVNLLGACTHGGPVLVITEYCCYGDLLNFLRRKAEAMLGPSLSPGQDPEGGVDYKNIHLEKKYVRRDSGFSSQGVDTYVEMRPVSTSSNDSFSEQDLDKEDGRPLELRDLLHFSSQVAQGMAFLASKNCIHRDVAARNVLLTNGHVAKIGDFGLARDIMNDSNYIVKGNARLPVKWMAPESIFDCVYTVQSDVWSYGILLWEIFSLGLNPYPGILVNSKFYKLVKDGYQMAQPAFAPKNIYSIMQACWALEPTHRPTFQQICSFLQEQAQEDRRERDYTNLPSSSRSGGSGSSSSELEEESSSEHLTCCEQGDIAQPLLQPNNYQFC
T1 sequence (P42684 whole entry): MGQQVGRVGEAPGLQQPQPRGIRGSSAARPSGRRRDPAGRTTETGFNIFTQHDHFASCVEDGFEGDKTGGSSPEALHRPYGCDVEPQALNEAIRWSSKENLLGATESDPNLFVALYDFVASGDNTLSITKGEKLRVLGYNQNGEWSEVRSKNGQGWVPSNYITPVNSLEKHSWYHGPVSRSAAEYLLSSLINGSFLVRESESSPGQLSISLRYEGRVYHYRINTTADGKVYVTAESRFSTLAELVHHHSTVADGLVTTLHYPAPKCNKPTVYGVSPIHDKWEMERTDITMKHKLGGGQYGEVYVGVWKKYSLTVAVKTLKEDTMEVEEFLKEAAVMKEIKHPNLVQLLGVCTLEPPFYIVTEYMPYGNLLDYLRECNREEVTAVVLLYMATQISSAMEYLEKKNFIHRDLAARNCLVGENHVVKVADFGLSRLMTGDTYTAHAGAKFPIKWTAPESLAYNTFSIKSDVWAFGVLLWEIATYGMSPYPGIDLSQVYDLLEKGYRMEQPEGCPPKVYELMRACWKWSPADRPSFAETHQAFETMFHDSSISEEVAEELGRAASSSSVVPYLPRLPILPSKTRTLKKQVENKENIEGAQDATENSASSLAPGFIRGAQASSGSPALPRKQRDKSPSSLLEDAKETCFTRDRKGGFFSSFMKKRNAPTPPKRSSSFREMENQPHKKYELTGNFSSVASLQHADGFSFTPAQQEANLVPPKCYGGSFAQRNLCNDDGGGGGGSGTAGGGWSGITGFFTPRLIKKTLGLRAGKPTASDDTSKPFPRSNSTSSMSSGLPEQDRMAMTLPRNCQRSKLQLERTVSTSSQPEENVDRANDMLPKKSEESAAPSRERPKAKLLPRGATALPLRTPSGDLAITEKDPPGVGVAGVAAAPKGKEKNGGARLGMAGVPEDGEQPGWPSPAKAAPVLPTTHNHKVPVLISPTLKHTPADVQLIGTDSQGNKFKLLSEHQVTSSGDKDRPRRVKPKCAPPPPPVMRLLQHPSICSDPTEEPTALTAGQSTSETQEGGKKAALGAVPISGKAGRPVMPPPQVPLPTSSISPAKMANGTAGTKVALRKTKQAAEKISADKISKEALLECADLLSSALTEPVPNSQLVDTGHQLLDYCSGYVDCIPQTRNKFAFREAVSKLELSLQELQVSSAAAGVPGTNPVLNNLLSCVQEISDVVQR
T2 sequence (Q9UM73 19-1620): as the sequence (Q9UM73 19-1620 L1196M) above, with M1178L counted along it

Q: Which results are given for `C=CC(=O)N1CCC[C@@H](n2nc(-c3ccc(Oc4ccccc4)cc3)c3c(N)ncnc32)C1` [Compound 1g, Ibrutinib, reference compound]?
A: remaining binding at 1 µM ([1]; @1000nM, read-out: %Control): 41%; remaining binding at 1 µM ([1]; read-out: %Control @1000nM): 41%; remaining binding at 1 µM ([2]; @1000nM, read-out: %Control): 94%; remaining binding at 1 µM ([2]; read-out: %Control @1000nM): 94%; remaining binding at 1 µM ([3]; @1000nM, read-out: %Control): 100%; remaining binding at 1 µM ([3]; read-out: %Control @1000nM): 100%; remaining binding at 1 µM ([4]; @1000nM, read-out: %Control): 80%; remaining binding at 1 µM ([4]; read-out: %Control @1000nM): 80%; %Control @1000nM [5]: 2.6%; %Control ([5]; @1000nM): 2.6%; remaining binding at 1 µM ([6]; @1000nM, read-out: %Control): 100%; remaining binding at 1 µM ([6]; read-out: %Control @1000nM): 100%; remaining binding at 1 µM ([7]; @1000nM, read-out: %Control): 48%; remaining binding at 1 µM ([7]; read-out: %Control @1000nM): 48%; remaining binding at 1 µM ([8]; @1000nM, read-out: %Control): 40%; remaining binding at 1 µM ([8]; read-out: %Control @1000nM): 40%; %Control @1000nM [9]: 100%; %Control ([9]; @1000nM): 100%; remaining binding at 1 µM ([10]; @1000nM, read-out: %Control): 68%; remaining binding at 1 µM ([10]; read-out: %Control @1000nM): 68%; remaining binding at 1 µM ([11]; @1000nM, read-out: %Control): 81%; remaining binding at 1 µM ([11]; read-out: %Control @1000nM): 81%; remaining binding at 1 µM ([12]; @1000nM, read-out: %Control): 96%; remaining binding at 1 µM ([12]; read-out: %Control @1000nM): 96%; remaining binding at 1 µM ([13]; @1000nM, read-out: %Control): 100%; remaining binding at 1 µM ([13]; read-out: %Control @1000nM): 100%

From publication PMC11345841, “Exploring 2-Sulfonylpyrimidine Warheads as Acrylamide Surrogates for Targeted Covalent Inhibition: A BTK Story” (Journal of Medicinal Chemistry, 2024)
